Laboratory results as given in patent US20190151320A1, “APPLICATION OF MAPK SIGNALING PATHWAY INHIBITOR IN MANUFACTURE OF DRUGS FOR DELAYING DEGENERATION OF DOPAMINERGIC NEURONS” (FUZHOU UNIVERSITY, priority 2016, published 2019).

Tested on: dopaminergic neurons in the PPL brain region
Assay: Dopaminergic neuron morphology and quantity in PPL brain regions of PD model fruit flies after 30 days of drug feeding
Format: in vivo, Drosophila melanogaster
Conditions: fruit fly PD models (alpha-synuclein overexpression, Lrrk2 overexpression, Parkin mutation, Pink1 mutation); for effect on degenerative death/loss of dopaminergic neurons in the PPL brain region (morphology and quantity): 1 μg/mL in feed for 30 days
Protocol: Animal models of PD caused by alpha-synuclein transgene overexpression, Lrrk2 transgene overexpression, Parkin gene mutation and Pink1 gene mutation were established in the four model groups. Each group includes 90 fruit flies and each group was further equally divided into three groups, drug-feeding groups and non-drug-feeding control group, for testing. Starting from imago at the age of 5 days, the drug-feeding group was continuously fed with 0.1 μg/mL, 1 μg/mL U0126 (U0126 is dissolved in 1% DMSO) for 30 days and the non-drug-feeding control group was fed with 1% DMSO as a solvent control. After 30 days of drug or control solvent feeding, the brains of fruit flies were dissected and the dopamine neurons were labeled by the whole-tissue immunostaining of the brains of the fruit flies with an anti-dopamine hydroxylase antibody. The morphology and quantity of the dopamine neurons in the PPL regions in the brains of the fruit flies were observed microscopically to determine the effect of U0126 on the dopaminergic neurons in the local brain regions.
Animal models of PD caused by alpha-synuclein transgene overexpression, Lrrk2 transgene overexpression, Parkin gene mutation and Pink1 gene mutation were established in the four model groups. Each group includes 90 fruit flies and each group was further equally divided into 2 drug-feeding groups and 1 non-drug-feeding control group for testing. […] The morphology and quantity of the dopamine neurons in the PPL regions in the brains of the fruit flies were observed microscopically to determine the effect of PD0325901 on the dopaminergic neurons in the local brain regions of the fruit flies.
Animal models of PD caused by alpha-synuclein transgene overexpression, Lrrk2 transgene overexpression, Parkin gene mutation and Pink1 gene mutation were established in the four model groups. […] The morphology and quantity of the dopamine neurons in the PPL regions in the brains of the fruit flies were observed microscopically to determine the effect of trametinib on the dopaminergic neurons in the local brain regions of the fruit flies.

Row | SMILES | effect on degenerative death/loss of dopaminergic neurons in the PPL brain region (morphology and quantity) | effect on degenerative death of dopaminergic neurons in the PPL brain region (morphology and quantity) (16.24 μM/mL in feed for 30 days)
1 | N#CC(=C(/N)Sc1ccccc1N)/C(C#N)=C(\N)Sc1ccccc1N [U0126] | can effectively reverse the degenerative death of the dopaminergic neurons | –
2 | O=C(NOC[C@H](O)CO)c1ccc(F)c(F)c1Nc1ccc(I)cc1F [PD0325901] | can effectively reverse the degenerative loss of the dopaminergic neurons | –
3 | CC(=O)Nc1cccc(-n2c(=O)n(C3CC3)c(=O)c3c(Nc4ccc(I)cc4F)n(C)c(=O)c(C)c32)c1 [trametinib] | – | can effectively reverse the degenerative death of the dopaminergic neurons
